# Source: patent publication EP4635500A1, “THERAPEUTIC AGENT FOR BACTERIAL INFECTION” (Sumitomo Pharma Co., Ltd., priority 2022, dated 2024)
# Like-named read-outs stand apart in the source and are kept apart here.
# Key:
# Type in all cases: cell-based
# [1] = tested on: Escherichia coli; test: MIC, broth microdilution, standard strains and Japanese clinical isolates (Example 5, Table 4)
# [2] = tested on: Klebsiella pneumoniae; test: as above
# [3] = tested on: Enterobacter cloacae; test: as above
# [4] = tested on: Enterobacter hormaechei; test: as above; conditions: ATCCBAA2082; KUB4001 Enterobacter hormaechei ATCC BAA-2082, KPC-2
# [5] = tested on: Providencia rettgeri; test: as above; conditions: ATCCBAA2525; KUB4010 Providencia rettgeri ATCC BAA-2525, OXA-181
# [6] = tested on: 53 CRE and CPE strains; test: MICrange, MIC50, MIC80, MIC90 for 53 bacterial isolates (Example 5, Table 5); conditions: 53 bacterial isolates
# [7] = tested on: CRE and CPE strains; test: MIC, broth microdilution, standard strains and Japanese clinical isolates (Example 5, Table 4 continued; organism of each KUB strain not given)
smiles,measurement,setting,value
"CC(C)(O/N=C(\C(=O)N[C@@H]1C(=O)N2C(C(=O)[O-])=C(C[n+]3ccccc3)CS[C@H]12)c1csc(N)n1)C(=O)O [CAZ, ceftazidime]",MIC,"[1]; ATCCBAA2452, KUB4005 Escherichia coli ATCC BAA-2452, NDM-1",> 32 µg/mL
same,MIC,"[1]; ATCCBAA2471, KUB4007 Escherichia coli ATCC BAA-2471, NDM-6",> 32 µg/mL
same,MIC,"[2]; ATCCBAA1898, KUB3996 Klebsiella pneumoniae ATCC BAA-1898, KPC-2",> 32 µg/mL
same,MIC,"[2]; ATCCBAA1899, KUB3997 Klebsiella pneumoniae ATCC BAA-1899, KPC-2",> 32 µg/mL
same,MIC,"[2]; ATCCBAA1900, KUB3998 Klebsiella pneumoniae ATCC BAA-1900, KPC-3",> 32 µg/mL
same,MIC,"[2]; ATCCBAA1904, KUB3999 Klebsiella pneumoniae ATCC BAA-1904, KPC-3",16 µg/mL
same,MIC,"[2]; ATCCBAA2078, KUB4000 Klebsiella pneumoniae ATCC BAA-2078, KPC-3",> 32 µg/mL
same,MIC,"[2]; ATCCBAA2146, KUB4011 Klebsiella pneumoniae ATCC BAA-2146, NDM-1",> 32 µg/mL
same,MIC,"[2]; ATCCBAA2342, KUB4003 Klebsiella pneumoniae ATCC BAA-2342, KPC-3",> 32 µg/mL
same,MIC,"[2]; ATCCBAA2343, KUB4004 Klebsiella pneumoniae ATCC BAA-2343, KPC-3",> 32 µg/mL
same,MIC,"[2]; ATCCBAA2472, KUB4008 Klebsiella pneumoniae subsp. Pneumoniae ATCC BAA-2472, NDM-1",> 32 µg/mL
same,MIC,"[2]; ATCCBAA2473, KUB4009 Klebsiella pneumoniae ATCC BAA-2473, NDM-1",> 32 µg/mL
same,MIC,"[2]; KUB3631 Klebsiella pneumoniae Clinical isolate, IMP-1",> 32 µg/mL
same,MIC,"[2]; KUB3633 Klebsiella pneumoniae Clinical isolate, IMP-6",32 µg/mL
same,MIC,"[2]; KUB3634 Klebsiella pneumoniae Clinical isolate, IMP-6",16 µg/mL
same,MIC,"[2]; KUB3635 Klebsiella pneumoniae Clinical isolate, IMP-1",> 32 µg/mL
same,MIC,"[3]; ATCCBAA2341, KUB4002 Enterobacter cloacae ATCC BAA-2341, KPC-3",> 32 µg/mL
same,MIC,"[3]; ATCCBAA2468, KUB4006 Enterobacter cloacae ATCC BAA-2468, NDM-1",> 32 µg/mL
same,MIC,[4],> 32 µg/mL
same,MIC,[5],> 32 µg/mL
same,MIC50,[6]; read-out: MIC50,> 32 µg/mL
same,MIC80,[6]; read-out: MIC80,> 32 µg/mL
same,MIC90,[6]; read-out: MIC90,> 32 µg/mL
same,MIC,"[7]; strain KUB3148, carbapenemase gene KPC-3, read-out: MIC",> 32 µg/mL
same,MIC,"[7]; strain KUB3149, carbapenemase gene NDM-1, read-out: MIC",> 32 µg/mL
same,MIC,"[7]; strain KUB3150, carbapenemase gene OXA-48, read-out: MIC",1 µg/mL
same,MIC,"[7]; strain KUB3151, carbapenemase gene IMP-1, read-out: MIC",> 32 µg/mL
same,MIC,"[7]; strain KUB3152, carbapenemase gene KPC-2, read-out: MIC",32 µg/mL
same,MIC,"[7]; strain KUB3153, carbapenemase gene KPC-3, read-out: MIC",> 32 µg/mL
same,MIC,"[7]; strain KUB3154, carbapenemase gene KPC-2, read-out: MIC",32 µg/mL
same,MIC,"[7]; strain KUB3158, carbapenemase gene OXA-48",0.5 µg/mL
same,MIC,"[7]; strain KUB3169, carbapenemase gene Unidentified",8 µg/mL
same,MIC,"[7]; strain KUB3170, carbapenemase gene Unidentified",8 µg/mL
same,MIC,"[7]; strain KUB3171, carbapenemase gene -",8 µg/mL
